Experimental data reported in BindingDB's records for doi:10.1016/j.bmcl.2017.01.038 (Novartis Institutes For Biomedical Research, 2017).

Target: Protein kinase C beta type (Mus musculus) (UniProt P68404)
Experiment: Inhibition of PKCbeta in mouse B cells assessed as reduction in IgM-stimulated cell proliferation

Sequence of Protein kinase C beta type (Mus musculus) (P68404 whole entry, looked up): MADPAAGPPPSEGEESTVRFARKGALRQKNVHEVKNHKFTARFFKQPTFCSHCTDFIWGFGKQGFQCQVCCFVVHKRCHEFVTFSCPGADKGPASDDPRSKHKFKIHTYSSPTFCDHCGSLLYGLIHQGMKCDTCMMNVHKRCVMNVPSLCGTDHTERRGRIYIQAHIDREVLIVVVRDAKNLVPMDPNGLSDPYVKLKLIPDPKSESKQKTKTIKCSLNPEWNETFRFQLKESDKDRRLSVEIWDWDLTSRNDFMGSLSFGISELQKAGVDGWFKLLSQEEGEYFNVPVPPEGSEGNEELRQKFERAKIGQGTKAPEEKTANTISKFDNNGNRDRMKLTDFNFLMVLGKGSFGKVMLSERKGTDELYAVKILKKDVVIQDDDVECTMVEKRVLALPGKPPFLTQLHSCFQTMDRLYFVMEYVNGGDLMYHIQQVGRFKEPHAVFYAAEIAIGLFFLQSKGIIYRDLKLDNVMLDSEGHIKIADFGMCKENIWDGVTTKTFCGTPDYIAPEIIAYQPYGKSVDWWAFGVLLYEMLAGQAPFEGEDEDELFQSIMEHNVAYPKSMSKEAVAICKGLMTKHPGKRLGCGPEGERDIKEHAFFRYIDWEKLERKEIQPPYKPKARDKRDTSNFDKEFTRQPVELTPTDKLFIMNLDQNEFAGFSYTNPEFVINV

IC50 [nM]	SMILES
296	CN(C)Cc1ccc2ccc(Cl)c(C3=C(c4cn(C)c5ccccc45)C(=O)NC3=O)c2c1
234	CN1CCN(c2nc(C3=C(c4c[nH]c5ccccc45)C(=O)NC3=O)c3ccccc3n2)CC1 [Sotrastaurin]
